# Data from PMC6704710, “Preclinical evaluation of 3D185, a novel potent inhibitor of FGFR1/2/3 and CSF-1R, in FGFR-dependent and macrophage-dominant cancer models” (Journal of Experimental & Clinical Cancer Research : CR, 2019).
# Key:
# Test in all cases: Eurofins kinase panel
# Assay type in all cases: biochemical
# Settings in all cases: read-out: Inhibition rate (%)
# BTK(h) = target: T1, BTK(h) (Homo sapiens, UniProt Q06187)
# T1 construct: purchased Eurofins (KinaseProfiler)
# EphB3(h) = target: T2, EphB3(h) (Homo sapiens, UniProt P54753)
# T2 construct: purchased Eurofins (KinaseProfiler)
# T2 sequence (P54753 34-998): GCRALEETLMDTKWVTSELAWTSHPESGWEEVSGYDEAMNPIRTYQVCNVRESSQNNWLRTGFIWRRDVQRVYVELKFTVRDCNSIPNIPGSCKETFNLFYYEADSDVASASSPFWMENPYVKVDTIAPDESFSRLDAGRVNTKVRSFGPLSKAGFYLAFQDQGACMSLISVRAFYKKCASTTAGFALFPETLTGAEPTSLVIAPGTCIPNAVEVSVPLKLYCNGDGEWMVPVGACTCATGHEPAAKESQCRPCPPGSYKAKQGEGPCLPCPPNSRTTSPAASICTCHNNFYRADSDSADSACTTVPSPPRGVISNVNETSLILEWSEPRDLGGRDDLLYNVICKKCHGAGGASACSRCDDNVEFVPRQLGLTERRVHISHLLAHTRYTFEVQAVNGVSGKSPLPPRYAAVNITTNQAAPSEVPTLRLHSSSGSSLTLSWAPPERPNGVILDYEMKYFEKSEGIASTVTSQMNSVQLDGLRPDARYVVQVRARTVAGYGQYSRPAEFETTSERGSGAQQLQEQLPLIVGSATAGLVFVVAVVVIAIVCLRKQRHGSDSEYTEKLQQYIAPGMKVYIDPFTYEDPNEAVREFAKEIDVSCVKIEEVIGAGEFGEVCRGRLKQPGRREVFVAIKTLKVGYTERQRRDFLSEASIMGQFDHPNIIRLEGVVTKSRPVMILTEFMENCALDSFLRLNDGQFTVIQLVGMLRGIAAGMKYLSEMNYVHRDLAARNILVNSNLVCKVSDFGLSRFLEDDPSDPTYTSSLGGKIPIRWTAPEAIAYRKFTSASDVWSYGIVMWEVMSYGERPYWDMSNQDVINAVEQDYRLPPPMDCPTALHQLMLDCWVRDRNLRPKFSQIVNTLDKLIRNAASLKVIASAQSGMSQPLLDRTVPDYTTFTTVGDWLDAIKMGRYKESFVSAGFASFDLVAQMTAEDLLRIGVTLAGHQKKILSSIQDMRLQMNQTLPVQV
# HPK1(h) = target: T3, HPK1(h) (Homo sapiens, UniProt Q92918)
# T3 construct: purchased Eurofins (KinaseProfiler)
# MEK2(h) = target: T4, MEK2(h) (Homo sapiens, UniProt P36507)
# T4 construct: purchased Eurofins (KinaseProfiler)
# PDGFRα(D842V)(h) = target: T5, PDGFRα(D842V)(h) (Homo sapiens, UniProt P16234, D842V)
# T5 construct: purchased Eurofins (KinaseProfiler)
# TGFBR2(h) = target: T6, TGFBR2(h) (Homo sapiens, UniProt P37173)
# T6 construct: purchased Eurofins (KinaseProfiler)
# ULK1(h) = target: T7, ULK1(h) (Homo sapiens, UniProt O75385)
# T7 construct: purchased Eurofins (KinaseProfiler)
# T7 sequence (O75385 1-1050): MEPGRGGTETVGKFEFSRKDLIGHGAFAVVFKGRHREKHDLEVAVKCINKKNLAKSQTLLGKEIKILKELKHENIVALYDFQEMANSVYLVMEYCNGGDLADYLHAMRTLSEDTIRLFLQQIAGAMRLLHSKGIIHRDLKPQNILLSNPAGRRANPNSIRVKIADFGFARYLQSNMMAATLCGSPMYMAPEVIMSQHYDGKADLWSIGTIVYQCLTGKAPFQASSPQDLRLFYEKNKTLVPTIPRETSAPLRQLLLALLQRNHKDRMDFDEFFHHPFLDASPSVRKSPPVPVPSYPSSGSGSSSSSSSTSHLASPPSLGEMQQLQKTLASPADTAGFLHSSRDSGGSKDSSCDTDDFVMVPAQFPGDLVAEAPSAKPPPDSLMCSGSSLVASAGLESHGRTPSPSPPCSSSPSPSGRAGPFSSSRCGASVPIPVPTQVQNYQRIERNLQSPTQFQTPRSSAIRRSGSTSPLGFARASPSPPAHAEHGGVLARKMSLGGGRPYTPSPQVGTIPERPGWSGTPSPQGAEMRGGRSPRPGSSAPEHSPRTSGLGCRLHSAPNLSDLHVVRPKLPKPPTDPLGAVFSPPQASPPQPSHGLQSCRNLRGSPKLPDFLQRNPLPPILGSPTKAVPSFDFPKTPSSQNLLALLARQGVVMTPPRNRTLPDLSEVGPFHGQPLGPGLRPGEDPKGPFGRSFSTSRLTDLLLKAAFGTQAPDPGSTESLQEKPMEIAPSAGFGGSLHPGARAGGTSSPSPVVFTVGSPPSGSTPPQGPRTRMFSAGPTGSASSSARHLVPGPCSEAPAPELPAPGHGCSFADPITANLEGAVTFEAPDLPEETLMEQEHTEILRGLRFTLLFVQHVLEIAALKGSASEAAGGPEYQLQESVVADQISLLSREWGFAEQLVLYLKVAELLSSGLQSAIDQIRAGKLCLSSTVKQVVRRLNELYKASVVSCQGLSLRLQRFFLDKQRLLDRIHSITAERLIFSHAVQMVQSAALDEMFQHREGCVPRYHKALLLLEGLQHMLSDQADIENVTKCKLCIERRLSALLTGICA
# c-RAF(h) = target: T8, c-RAF(h) (Homo sapiens, UniProt P04049)
# T8 construct: purchased Eurofins (KinaseProfiler)
# T8 sequence (P04049 whole entry): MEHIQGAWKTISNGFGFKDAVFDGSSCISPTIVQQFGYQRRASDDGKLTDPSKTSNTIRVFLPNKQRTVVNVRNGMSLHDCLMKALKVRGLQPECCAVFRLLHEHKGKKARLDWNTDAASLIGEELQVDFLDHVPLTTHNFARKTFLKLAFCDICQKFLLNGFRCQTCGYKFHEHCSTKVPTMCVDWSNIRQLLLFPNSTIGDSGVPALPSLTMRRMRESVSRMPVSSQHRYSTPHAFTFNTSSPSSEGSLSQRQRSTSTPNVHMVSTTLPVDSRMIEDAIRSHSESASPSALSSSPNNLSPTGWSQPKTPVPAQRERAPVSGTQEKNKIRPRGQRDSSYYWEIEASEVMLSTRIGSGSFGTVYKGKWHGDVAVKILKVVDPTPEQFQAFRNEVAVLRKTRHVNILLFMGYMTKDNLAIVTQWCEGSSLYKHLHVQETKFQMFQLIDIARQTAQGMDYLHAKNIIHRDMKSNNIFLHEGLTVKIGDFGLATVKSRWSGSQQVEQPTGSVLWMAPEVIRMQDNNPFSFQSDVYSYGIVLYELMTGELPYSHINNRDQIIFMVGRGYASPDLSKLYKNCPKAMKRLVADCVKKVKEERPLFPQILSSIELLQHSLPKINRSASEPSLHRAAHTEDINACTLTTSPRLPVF
# T3 sequence (Q92918 whole entry): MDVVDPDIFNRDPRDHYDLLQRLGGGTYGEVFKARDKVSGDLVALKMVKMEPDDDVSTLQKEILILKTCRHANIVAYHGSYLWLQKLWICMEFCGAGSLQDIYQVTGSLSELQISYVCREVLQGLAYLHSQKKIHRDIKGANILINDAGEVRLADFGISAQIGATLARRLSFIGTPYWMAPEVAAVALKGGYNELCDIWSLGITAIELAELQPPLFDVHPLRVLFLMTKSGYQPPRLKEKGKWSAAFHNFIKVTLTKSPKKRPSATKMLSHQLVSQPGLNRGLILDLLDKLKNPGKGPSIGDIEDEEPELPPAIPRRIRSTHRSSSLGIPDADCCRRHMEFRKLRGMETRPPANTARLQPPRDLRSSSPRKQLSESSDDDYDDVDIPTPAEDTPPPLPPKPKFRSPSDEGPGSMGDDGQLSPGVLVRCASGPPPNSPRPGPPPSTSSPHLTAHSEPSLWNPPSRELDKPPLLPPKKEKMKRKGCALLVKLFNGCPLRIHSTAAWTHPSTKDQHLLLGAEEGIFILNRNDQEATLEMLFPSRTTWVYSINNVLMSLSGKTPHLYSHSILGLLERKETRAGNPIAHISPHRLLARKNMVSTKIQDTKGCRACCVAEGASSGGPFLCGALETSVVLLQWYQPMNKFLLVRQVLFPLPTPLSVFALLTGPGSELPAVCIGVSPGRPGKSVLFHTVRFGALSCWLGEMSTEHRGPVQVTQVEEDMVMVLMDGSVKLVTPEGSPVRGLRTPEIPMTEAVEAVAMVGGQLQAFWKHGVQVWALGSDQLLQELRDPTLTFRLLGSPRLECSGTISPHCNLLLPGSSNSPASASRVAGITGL
# T1 sequence (Q06187 whole entry): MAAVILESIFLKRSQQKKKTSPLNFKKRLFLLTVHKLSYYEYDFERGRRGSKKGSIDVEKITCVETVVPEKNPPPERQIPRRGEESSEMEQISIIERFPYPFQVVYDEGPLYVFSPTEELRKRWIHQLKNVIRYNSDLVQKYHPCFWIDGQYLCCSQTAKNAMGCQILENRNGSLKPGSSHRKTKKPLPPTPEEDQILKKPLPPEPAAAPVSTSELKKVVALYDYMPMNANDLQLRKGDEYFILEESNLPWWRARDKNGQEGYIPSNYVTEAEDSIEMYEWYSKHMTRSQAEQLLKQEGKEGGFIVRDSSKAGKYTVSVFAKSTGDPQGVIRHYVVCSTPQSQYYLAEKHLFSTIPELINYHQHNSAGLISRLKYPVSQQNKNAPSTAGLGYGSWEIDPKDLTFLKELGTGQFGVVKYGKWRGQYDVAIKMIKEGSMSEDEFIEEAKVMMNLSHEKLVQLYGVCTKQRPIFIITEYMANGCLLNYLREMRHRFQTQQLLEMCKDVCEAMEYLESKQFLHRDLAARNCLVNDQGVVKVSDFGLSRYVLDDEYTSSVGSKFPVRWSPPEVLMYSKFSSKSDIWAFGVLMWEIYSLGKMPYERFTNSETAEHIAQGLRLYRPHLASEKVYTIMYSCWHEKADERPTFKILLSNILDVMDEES
# T5 sequence (P16234 24-1089 D842V): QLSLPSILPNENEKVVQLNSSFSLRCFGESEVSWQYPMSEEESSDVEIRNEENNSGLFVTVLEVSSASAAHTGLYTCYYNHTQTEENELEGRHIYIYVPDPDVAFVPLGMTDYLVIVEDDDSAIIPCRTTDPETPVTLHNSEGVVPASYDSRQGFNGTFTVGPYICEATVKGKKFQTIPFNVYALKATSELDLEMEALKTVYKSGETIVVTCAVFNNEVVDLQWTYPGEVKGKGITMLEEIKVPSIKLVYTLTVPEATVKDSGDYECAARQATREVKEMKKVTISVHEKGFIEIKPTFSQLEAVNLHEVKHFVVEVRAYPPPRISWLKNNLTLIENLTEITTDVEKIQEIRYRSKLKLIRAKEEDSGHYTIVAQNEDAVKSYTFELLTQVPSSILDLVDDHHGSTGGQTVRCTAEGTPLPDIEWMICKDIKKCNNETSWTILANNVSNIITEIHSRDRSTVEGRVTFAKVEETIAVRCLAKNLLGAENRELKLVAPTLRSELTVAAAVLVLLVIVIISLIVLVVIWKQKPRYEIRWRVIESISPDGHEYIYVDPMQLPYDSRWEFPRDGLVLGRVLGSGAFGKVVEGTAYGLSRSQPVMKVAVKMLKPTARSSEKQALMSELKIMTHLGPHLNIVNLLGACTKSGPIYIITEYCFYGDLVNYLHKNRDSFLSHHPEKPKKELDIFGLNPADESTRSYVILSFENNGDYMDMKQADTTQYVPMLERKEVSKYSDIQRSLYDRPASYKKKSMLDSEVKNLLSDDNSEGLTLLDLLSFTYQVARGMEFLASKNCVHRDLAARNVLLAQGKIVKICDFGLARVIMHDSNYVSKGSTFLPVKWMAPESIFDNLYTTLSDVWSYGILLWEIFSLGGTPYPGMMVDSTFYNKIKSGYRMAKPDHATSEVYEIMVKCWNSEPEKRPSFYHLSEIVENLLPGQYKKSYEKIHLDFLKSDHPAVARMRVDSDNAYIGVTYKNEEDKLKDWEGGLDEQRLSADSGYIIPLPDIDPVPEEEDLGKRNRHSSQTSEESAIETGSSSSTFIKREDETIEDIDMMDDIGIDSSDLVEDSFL
# T6 sequence (P37173 23-567): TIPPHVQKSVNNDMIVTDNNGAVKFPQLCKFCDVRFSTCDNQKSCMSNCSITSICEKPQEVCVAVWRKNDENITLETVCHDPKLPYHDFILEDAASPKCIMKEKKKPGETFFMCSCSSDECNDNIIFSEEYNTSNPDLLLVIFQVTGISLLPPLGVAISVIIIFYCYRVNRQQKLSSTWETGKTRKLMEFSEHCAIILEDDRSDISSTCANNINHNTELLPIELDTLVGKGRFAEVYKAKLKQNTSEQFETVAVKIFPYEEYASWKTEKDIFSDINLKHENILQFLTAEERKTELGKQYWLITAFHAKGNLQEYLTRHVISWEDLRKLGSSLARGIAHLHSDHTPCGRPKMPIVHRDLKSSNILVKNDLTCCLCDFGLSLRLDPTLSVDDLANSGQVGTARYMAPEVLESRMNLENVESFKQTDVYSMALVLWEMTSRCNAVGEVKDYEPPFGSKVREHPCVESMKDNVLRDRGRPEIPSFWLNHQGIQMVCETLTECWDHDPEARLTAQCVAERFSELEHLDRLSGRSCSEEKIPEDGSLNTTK
# T4 sequence (P36507 whole entry): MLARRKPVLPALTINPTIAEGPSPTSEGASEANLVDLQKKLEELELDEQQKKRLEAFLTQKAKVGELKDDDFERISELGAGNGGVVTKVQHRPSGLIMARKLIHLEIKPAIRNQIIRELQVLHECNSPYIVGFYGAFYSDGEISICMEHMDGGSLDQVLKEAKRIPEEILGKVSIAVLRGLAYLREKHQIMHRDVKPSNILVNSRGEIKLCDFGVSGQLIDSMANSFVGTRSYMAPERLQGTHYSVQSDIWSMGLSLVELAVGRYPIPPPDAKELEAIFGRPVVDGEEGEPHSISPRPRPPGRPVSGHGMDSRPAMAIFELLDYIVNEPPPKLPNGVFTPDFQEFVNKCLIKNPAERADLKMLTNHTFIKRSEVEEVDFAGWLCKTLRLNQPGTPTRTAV
smiles,measurement,setting,value
COc1cc(OC)c(Cl)c(-c2ccc3c(NC(=O)c4ccc(N5CCNC(C)(C)C5)cc4)n[nH]c3n2)c1Cl [3D185],inhibition at 0.01 µM,BTK(h); 10 nM,11%
same,inhibition at 0.1 µM,BTK(h); 100 nM,39%
same,inhibition at 1 µM,BTK(h); 1000 nM,90%
same,inhibition at 0.01 µM,EphB3(h); 10 nM,13%
same,inhibition at 0.1 µM,EphB3(h); 100 nM,1%
same,inhibition at 1 µM,EphB3(h); 1000 nM,5%
same,inhibition at 0.01 µM,HPK1(h); 10 nM,17%
same,inhibition at 0.1 µM,HPK1(h); 100 nM,65%
same,inhibition at 1 µM,HPK1(h); 1000 nM,94%
same,inhibition at 0.01 µM,MEK2(h); 10 nM,-18%
same,inhibition at 0.1 µM,MEK2(h); 100 nM,-19%
same,inhibition at 1 µM,MEK2(h); 1000 nM,8%
same,inhibition at 0.01 µM,PDGFRα(D842V)(h); 10 nM,-2%
same,inhibition at 0.1 µM,PDGFRα(D842V)(h); 100 nM,5%
same,inhibition at 1 µM,PDGFRα(D842V)(h); 1000 nM,9%
same,inhibition at 0.01 µM,TGFBR2(h); 10 nM,-10%
same,inhibition at 0.1 µM,TGFBR2(h); 100 nM,-5%
same,inhibition at 1 µM,TGFBR2(h); 1000 nM,-9%
same,inhibition at 0.01 µM,ULK1(h); 10 nM,-2%
same,inhibition at 0.1 µM,ULK1(h); 100 nM,4%
same,inhibition at 1 µM,ULK1(h); 1000 nM,5%
same,inhibition at 0.01 µM,c-RAF(h); 10 nM,13%
same,inhibition at 0.1 µM,c-RAF(h); 100 nM,14%
same,inhibition at 1 µM,c-RAF(h); 1000 nM,5%
